The results in this text go back to patent publication US9867802B2, “Method of treating Scedosporium spp. infection” (BIODIEM LIMITED, priority 2012, dated 2018).

≈ marks a conversion by molar mass, not a printed value. Read-outs that look alike come from different tables or passages of the source.

For one data set, the system named is S. apiospermum. The data set is described as follows: In vitro susceptibility (MIC) against Scedosporium spp. The data set is classed as cell-based. As to the method: (§1) In vitro susceptibility to Compound (1) was assessed against Scedosporium spp. A stock solution of 1 mg/ml of Compound (1) was made in 100% DMSO. The stock was aliquoted and stored at −80° C.
(§2) Three strains Scedosporium prolificans and 3 strains of S. apiospermum/P. boydii were tested. Each isolate was tested in duplicate and on two separate occasions.

A further data set relates to Scedosporium prolificans. Described as above. The conditions noted are these: for MIC: Lomentospora prolificans, duplicate on two occasions, read-out: Arithmetic Mean MIC (mg/L) of 4 readings. The data set is classed as cell-based. As to the method: as §1, §2
A further data set concerns P. boydii. Described as above. It is filed as cell-based, Pseudallescheria boydii. Particulars: strain P. boydii 01-10-1391979, duplicate on two occasions, read-out: Arithmetic Mean MIC (mg/L) of 4 readings. As to the method: as §1, §2

In the case of `O=[N+]([O-])/C=C/c1ccc2c(c1)OCO2` [Compound (2), 3,4-methylenedioxy-β-nitrostyrene], the “Solubility in organic solvents” value in “Solubility profile” (acetone, alcohol, acetic acid and a majority of organic solvents) is “soluble”. Also, the Solubility in water entry in “Solubility profile” (water) is given as “non-soluble”.

On to `C/C(=C\c1ccc2c(c1)OCO2)[N+](=O)[O-]` [Compound (1), 3,4-methylenedioxy-β-methyl-β-nitrostyrene], for which the MIC stood at 2 mg/L (≈ 9.65 µM) with S. apiospermum (read-out: Arithmetic Mean MIC (mg/L) of 4 readings, strain S. apsiopermum 04-10-2013595, duplicate on two occasions); 4 mg/L (≈ 19.3 µM) in the data set on S. apiospermum (strain S. apiospermum 04-10-1932310, duplicate on two occasions, read-out: Arithmetic Mean MIC (mg/L) of 4 readings); 2 mg/L (≈ 9.65 µM) in the data set with Scedosporium prolificans (strain S. prolificans 04-11-1472398); 1 mg/L (≈ 4.83 µM) with Scedosporium prolificans (strain S. prolificans (Austin Pathology)); 2 mg/L (≈ 9.65 µM) in the data set with Scedosporium prolificans (strain S. prolificans MB 10028425); 4 mg/L (≈ 19.3 µM) in the data set on P. boydii. The “Relative activity among Scedosporium spp.” value in the data set with Scedosporium prolificans (comparison of species tested in Table 1) is listed as “most active against S. prolificans”.
